Assay results as given in patent US8673910B2, “Proteasome inhibitors for selectively inducing apoptosis in cancer cells” (H. Lee Moffitt Cancer Center and Research Institute, priority 2008, dated 2014).
“And” between values parts separate entries of the source, which are not always exact repeats. Equal entries are not always repeated.

Columns and labels:
[1] = test system: MCF-7 breast cancer cells; assay: MTT metabolism assay; type: cell-based, human; settings: Homo sapiens, MCF7, 72 h, MCF-7, 72 h (Table 6); read-out: IC50 for cell viability measured by MTT assay in MCF-7 human breast cancer cells
Experimental: Cells were plated in 96-well plates in 100 μl medium and allowed to attach overnight. […] Media was aspirated after 24 or 72 hours and replaced with 100 μl complete media containing 1 mg/ml MTT and incubated for three hours at 37° C. in 5% CO2 humidified incubator. Media was then aspirated and DMSO was added. Cells were incubated for 10 min at room temperature while shaking, and the absorbance was determined at 540 nm using a μQuant spectrophotometric plate reader (Bio-TEK, Winooski, Vt.).
Cells were plated in 96-well plates in 100 μl medium and allowed to attach overnight. Cells were then incubated for 72 h with varying concentrations of PI-083, YG1-080, YG1-075, HL2-090-2, HL2-090-4, HL2-090-6, and HL2-090-9 or vehicle control (DMSO). Media was aspirated and replaced with 100 μl complete media containing 1 mg/ml MTT and incubated for three hours at 37° C. in 5% CO2 humidified incubator. Media was then aspirated and DMSO was added. Cells were incubated for 10 min at room temperature while shaking, and the absorbance was determined at 540 nm using a μQuant spectrophotometric plate reader (Bio-TEK, Winooski, Vt.).

[2] = target: T1, chymotrypsin-like (CT-L) activity of purified 20S rabbit proteasome (Oryctolagus cuniculus, UniProt G1T4Q9); assay: Proteolytic activity of purified 20S proteasome, fluorogenic substrate Suc-Leu-Leu-Val-Tyr-AMC; type: biochemical; settings: purified rabbit 20S proteasome
T1 sequence (G1T4Q9 1-263): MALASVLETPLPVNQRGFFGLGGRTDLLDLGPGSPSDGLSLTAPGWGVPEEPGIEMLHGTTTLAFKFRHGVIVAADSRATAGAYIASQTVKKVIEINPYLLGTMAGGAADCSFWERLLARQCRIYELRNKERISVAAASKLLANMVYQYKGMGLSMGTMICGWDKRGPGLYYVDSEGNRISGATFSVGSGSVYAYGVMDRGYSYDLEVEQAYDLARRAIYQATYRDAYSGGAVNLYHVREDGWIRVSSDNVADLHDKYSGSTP
Experimental: The inhibitory activity of the compounds was calculated based on vehicle control). This technique monitors the hydrolytic release of a coumarin species from a synthetic peptide substrate.
The assay was conducted by using a fluorogenic peptide as substrate to test synthesized compounds for inhibitory activity against the chymotrypsin-like activity of the purified rabbit 20S proteasome. Briefly, 70 ng of purified 20S proteasome was incubated with 20 μM Suc-Leu-Leu-Val-Tyr-AMC for 1 hour at 37° C. in 100 μl of assay buffer (50 mM Tris-HCl, pH 7.6) with or without inhibitors. After incubation, production of hydrolyzed 7-amido-4-methyl-coumarin (AMC) was measured using a WALLAC Victor2 1420 Multilabel Counter with an excitation filter of 355 nm and an emission filter of 460 nm (Perkin Elmer Life Sciences, Turku, Finland). The inhibitory activity of the compounds was calculated based on vehicle control.

[3] = target: T2, CT-L activity of the proteasome in MCF-7 human breast cancer cells (Homo sapiens, UniProt P20618+P28074); assay: Proteolytic activity in cell lysates of treated intact MCF-7 cells; type: cell-based; settings: intact cells treated 16 h, CT-L measured in cell lysates; two determinations where two values
T2 construct: endogenous in cells; host or cells: MCF-7
Experimental: Human MCF-7 breast cancer cells were cultured in DMEM medium containing 10% fetal calf serum (FCS) and 100 units/ml of penicillin and 100 μg/ml of streptomycin. Cells were maintained at 37° C. in a humidified incubator in an atmosphere of 5% CO2. Cells were treated with different concentrations of PI-083, YG1-080, YG1-075, HL2-090-2, HL2-090-4, HL2-090-6, and HL2-090-9 or vehicle control (DMSO) for 16 h.
Intact cells were treated with compounds and lysates prepared as described above. Cell lysates (5 μg) was incubated with 20 μM Suc-Leu-Leu-Val-Tyr-AMC for the CT-L activity for 1 h at 37° C. in 100 μl of assay buffer (50 mM Tris-HCl, pH 7.6). After incubation, production of hydrolyzed 7-amido-4-methyl-coumarin (AMC) groups was measured using a WALLAC Victor^2 1420 Multilabel Counter with an excitation filter of 355 nm and an emission filter of 460 nm (Perkin Elmer Life Sciences, Turku, Finland).

For `NS(=O)(=O)c1ccc(NC2=C(Cl)C(=O)c3ccccc3C2=O)cc1` [Compound 2t, 4-(3-chloro-1,4-dioxo-1,4-dihydronaphthalen-2-ylamino)benzenesulfonamide], the melting point was over 300 °C, the IC50 [1] was 2.41 ± 0.19 µM and the IC50 ([2]; PI-083 derivatives (Table 7, naphthoquinone library), read-out: IC50 (μM) Chymotrypsin-like activity) was 1.1 µM. The “proteasome (chymotrypsin-like) inhibitory activity, in words” value [2] was “equally as active as PI-083” and the IC50 [3] was 5.1 µM and 4.7 µM.
